“Also recorded” adds a separate entry of the source.
Experiments:
[1] = tasting of Powerade sports drink with KCl and mogroside; type: in vivo
Text: (§1) Additional examples of the use of Mogroside V to alter the flavors of various consumables, and the experimental results obtained, are summarized in Table I: […]

[2] = tasting of soy milk with mogroside; type: in vivo; conditions: plain + 200 ppm mogroside (plain: beany)
Text: as §1

[3] = tasting of coconut water with mogroside; type: in vivo; conditions: plain + 200 ppm mogroside (plain: bitter)
Text: as §1

[4] = solubility of mogroside in water versus oil; type: physicochemical
Text: Addition of mogroside will also help improve the flavor of other organ meats and products containing organ meats. Other methods of cooking may also be used. The concentration or amount of mogroside may vary, depending on the method of cooking used. […] By contrast, cooking foods in water may require that higher concentrations of mogroside be used than when cooking in oil, because the mogroside is soluble in the cooking liquid. Higher concentrations of mogroside may be needed to promote osmosis or diffusion into the food. Temperature and cooking time will also have an effect on uptake of mogroside: In general, more mogroside will be taken up by food when the cooking temperature is higher, and also when the cooking time is longer.

[5] = blind tasting of poached beef liver puree; type: in vivo
Experimental: In another experiment, mogroside was added to a beef liver puree, and the puree was poached to an internal temperature of 74° C. A control puree with no mogroside was identically cooked. Six individuals tasted the samples blind and could easily differentiate them.

[6] = tasting of acai products with mogroside; type: in vivo
Text: Acai berries have a bitter off-flavor, which has limited the use of acai as a natural anti-oxidant. Prior methods for minimizing the bitterness of acai have included diluting the juice, adding sugar, or mixing acai with other, sweeter berries. […] The flat, tannic notes of acai were masked, and the puree flavor changed to a semi-sweet berry flavor with large, juicy top notes. The preferred concentration range was ˜200 to ˜500 ppm mogroside. […] Possible uses include any products that contain acai berry ingredients, including for example raw berries, purees, powders, flavorings, juices, ice cream (with or without glycerin), fruit fillings, smoothies, yogurts, teas, coffee, beer, salad dressing, marinades, candies, wines, liquors, other alcoholic beverages, and the like.
as §1

[7] = tasting of aqueous potassium chloride solutions with or without mogroside; type: in vivo
Text: When tasted by volunteers, the solution without mogroside was bitter, unpleasant, and generally considered undrinkable.
as §1

[8] = tasting of pomegranate juice with mogroside; type: in vivo; conditions: plain + 200 ppm mogroside (plain: tannic)
Text: as §1

[9] = tasting of cocoa powder with mogroside; type: in vivo; conditions: plain + 200 ppm mogroside (plain: bitter)
Text: as §1

[10] = tasting of glycerine-water mixtures with mogroside; type: in vivo
Text: Glycerine causes an astringent or biting taste in the back of the mouth when added to foods at levels over a few percent by weight. […] Glycerine may then be used as a humectant in intermediate-moisture human and pet foods. Adding a preferred concentration of about 200 ppm mogroside reduces or even eliminates the glycerine “bite.” Foods such as beans, pasta, rice, and bulgur can be pre-cooked in aqueous solutions of glycerine (˜2 to ˜30% by weight), containing ˜25 to ˜500 ppm mogroside. The products are then optionally dried to a water activity (aw) less than ˜0.7. The resulting materials can be rehydrated quickly with no bitter flavor.
as §1

[11] = tasting of lima beans with mogroside in oil; type: in vivo; conditions: plain + 100 ppm mogroside in oil (plain: beany)
Text: as §1

[12] = tasting of Robusta coffee with chicory with mogroside; type: in vivo; conditions: 2 g/250 g water, plain + 200 ppm mogroside
Text: as §1

[13] = tasting of turnip greens with mogroside in oil; type: in vivo; conditions: plain + 100 ppm mogroside in oil (plain: bitter)
Text: as §1

[14] = difference and preference testing of a cocoa powder drink with 400 ppm mogroside; type: in vivo
Text: as §1

[15] = vegetable oil with mogroside sprayed onto vegetables, tasting; type: in vivo; conditions: vegetable oil with 800 ppm mogroside sprayed on
Text: Mogroside may also be applied to vegetables, for example as a spray or as a dipping solution. The bitter and astringent flavor notes of many vegetables are thereby reduced substantially, resulting in a smoother-tasting vegetable. Mogroside can also reduce beany notes and off-flavors in vegetables. We dispersed an aqueous or ethanol solution of mogroside into vegetable oil at a concentration of 800 ppm. The vegetable oil was then sprayed onto vegetables, either before or after cooking. […] The mogroside may be applied to vegetables from aerosols or misting solutions. It may also be used in microwaving, steaming, or boiling of vegetables, as well as other methods of cooking. […] Treating vegetables with mogroside can help to improve their acceptability.

[16] = tasting of Ruby Red grapefruit with mogroside; type: in vivo
Text: as §1

[17] = cocoa powder drink + 400 ppm mogroside vs control, number of tasters

mogroside
flavor ([1]; plain + 2% KCl + mogroside (without mogroside: bitter)): salty
flavor ([1]; plain + 3% KCl + mogroside (without mogroside: bitter)): slightly bitter, salty
flavor [2]: decreased beany flavor
flavor [3]: sweet
solubility in water compared with oil [4]: much higher than that in oil
taste description by six blind tasters ([5]; 150-250 ppm, puree poached to 74° C., control livery, organy, bloody): slightly sweet, “bologna-like,” and “bland.”
level preferred by the majority of testers ([5]; in vivo): 200 ppm
preference of testers ([5]; samples with mogroside vs control puree, six individuals): All testers preferred the samples with mogroside
flavor ([6]; Acai puree 12% Brix, plain + 500 ppm mogroside (plain: tannic)): berry-semi-sweet/fruity
flavor ([6]; Acai, 100 ppm mogroside (control: bitter, tannic)): bland, slight tannic
flavor ([6]; Acai, 200 ppm mogroside): fruity, berry semi-sweet
flavor ([6]; Acai, 300 ppm mogroside): tannic, little flavor at all
flavor ([6]; Acai, 400 ppm mogroside): jammy, slight tannic
flavor ([6]; Acai, 500 ppm mogroside): jammy, no tannin
flavor ([6]; Acai, 600 ppm mogroside): jammy, sweet after taste;; also recorded: high intensity flavor
flavor ([6]; Acai, 700 ppm mogroside): sweet
flavor ([6]; Acai, 800 ppm mogroside): too sweet
flavor ([6]; acai products, 800 ppm mogroside): strong, high-intensity sweet flavor
effect on bitterness and off-flavor of acai ([6]; mogroside added to acai berry puree): masked the bitterness and off-flavor notes
perceived taste ([7]; 2% aqueous potassium chloride with 250 ppm mogroside, tasted by volunteers, without mogroside bitter, undrinkable): slightly salty, otherwise bland, and far more drinkable
flavor ([7]; KCl 2% + 250 ppm mogroside (2% alone: bitter)): salty
flavor ([7]; KCl 2.5% + 250 ppm mogroside): salty
flavor ([7]; KCl 3.0% + 250 ppm mogroside): slight bitterness
flavor [8]: sweet
flavor [9]: chocolate
flavor ([10]; 50% glycerine solution + mogroside (without: biting)): sweet
effect on astringent or biting taste of glycerine ([10]; mogroside added to glycerine-water mixtures): greatly reduces or even eliminates the astringent or biting taste
flavor [11]: semi-sweet; no; also recorded: beaniness
flavor [12]: sweet coffee flavor
flavor [13]: semi-sweet; no; also recorded: beaniness
Difference testing: No [14, 17]: 0
Difference testing: Yes [14, 17]: 6
Preference testing: Control ([14]; number preferring control without mogroside): 1
Preference testing: Test ([14]; number preferring test drink with 400 ppm mogroside): 6
observed flavor change ([15]; artichoke hearts): reduction in bitterness and grassy flavor
observed flavor change ([15]; broccoli): reduction in sulfur and bitter notes
observed flavor change ([15]; carrots): more intense sweetness
observed flavor change ([15]; corn): sweeter corn flavor
observed flavor change ([15]; green beans): sweeter flavor and fewer beany notes
observed flavor change ([15]; lima beans): reduction in bitterness
observed flavor change ([15]; peas): shorter flavor profile
flavor ([16]; plain + 100 ppm mogroside (plain: mild sour, mild sweet, very mild aftermath)): no difference from plain
flavor ([16]; plain + 200 ppm mogroside): mild sour, sweet, high
flavor ([16]; plain + 300 ppm mogroside): sweet, hint of sour,; also recorded: aftertaste of bitterness
flavor ([16]; plain + 400 ppm mogroside): very sweet, no sour,; also recorded: hint of bitterness
flavor ([16]; plain + 600 ppm mogroside): too sweet

From patent publication US20200214324A1, “Masking Bitter Flavors” (Board of Supervisors of Louisiana State University and …, priority 2009, published 2020)
